Source: publication PMC5554537 (Frontiers in Pharmacology, 2017)

How the values were obtained:
[1] = parameters: method as in Anderson et al., 2014; settings: ref Anderson et al., 2014; cited from earlier work
[2] = Reductive metabolism in liver S9 preparations; format: in vitro ADME, NIH-III mice; settings: for Rate of reduction to M14: 20 μg/ml protein
Procedure: In vitro hepatic metabolism of SN30000 and M14 was studied using 9,000 g post-mitochondrial supernatants (S9) prepared from livers of female NIH-III mice. Metabolism at 37°C was measured by dilution of S9 to appropriate protein concentrations (measured by BCA protein assay) in sodium/potassium phosphate buffer (67 mM phosphate, pH 7.4) containing 5 mM MgCl2, 1 mM EDTA, 1 mM NADPH, 1 mM NADH and 150 μM test drug. The reaction was terminated by adding an equal volume of ice-cold MeOH and samples were analyzed by LC-MS/MS. Two methods were used to modify the oxygen concentration. Method 1: 96-well plates (reaction volume 0.1 mL/well) were incubated for 30 min on a Eppendorf Thermomixer C (Eppendorf AG, Hamburg, Germany) either under 21% O2 (oxia) or 95% N2/5% CO2 (anoxia) in an anaerobic chamber (Sheldon Manufacturing, Cornelius, OR, United States) as described previously ([Gu et al., 2010]). Method 2: glass vials containing 3 mL final volume were magnetically stirred continuously in a water bath under flowing 5% CO2 containing 0, 0.2, 2, or 20% O2 (certified gas mixtures from BOC Gasses NZ), as detailed previously ([Hicks et al., 2007]), and samples (0.1 mL) were withdrawn at intervals for analysis.
To address whether this reflects an oxygen-sensitive (one-electron reduction) or oxygen-insensitive (two-electron reduction) process, metabolism was compared in NIH-III mouse liver S9 preparations under 20% O2 or anoxia. […] Using low protein concentrations (20 μg/ml) to enable assessment of initial rates, reduction to M14 was similar for anoxic liver S9 preparations from male and female NIH-III mice (10.6 ± 0.2 and 9.2 ± 0.2 nmol/min/mg protein, respectively). […] The liver S9 intrinsic clearance, CLint, was calculated as Vmax/Km for M14 formation under anoxia and scaled to the whole liver based on the (unrealistic) assumption that the liver is entirely anoxic. This upper estimate of in vivo hepatic clearance was then predicted as previously described ([Gu et al., 2011b]) using the free fraction of SN30000 in mouse plasma determined by equilibrium dialysis (Supplementary Table 11).

Urinary excretion = format: in vivo, NIH-III mice; settings: for Urinary excretion, % of administered dose: 24 h
Procedure: Mice (20–25 g body weight) were dosed i.p. or by slow bolus (10–20 s) i.v. injection via a lateral tail vein, with co-administration of ^3H-mannitol (0.025 μmol/kg; 67 MBq/g) in some studies as a marker of renal function. For evaluation of acute toxicity, mice were observed continuously for 3 h after dosing, and their activity rated on a lethargy score from 0 representing no change in activity to 5 representing animals that were moribund and required culling. For MTD studies, the animals were checked daily for clinical signs of toxicity and body weight change for 2 weeks. In some studies rectal temperature changes after dosing were measured using a BAT-12 digital microprobe thermometer (Physitemp Instruments, Clifton, NJ, United States) at the times specified in the figures. Blood samples were collected from mice at various times by cardiac puncture, seconds after cervical dislocation, into ice-cold tubes containing K2EDTA. These were placed on ice immediately after collection and centrifuged (3,000 g, 3 min) within 10 min to harvest plasma. Plasma and tissues were rapidly frozen in liquid nitrogen before storage at -80°C for subsequent bioanalysis. Urine samples were collected from mice housed individually in metabolic cages (Minor Metabowl, Jencons, United Kingdom; one animal per cage) with continuous access to food and water.

Row | Structure (SMILES) | One-electron reduction potential, lower than SN30000 by [1] [mV] | Rate of reduction to M14 ([2]; anoxic liver S9 from female mice) [nmol/min/mg protein] | Rate of reduction to M14 ([2]; anoxic liver S9 from male mice) [nmol/min/mg protein] | Vmax for formation of M14 ([2]; anoxic mouse liver S9) [nmol/min/mg protein] | Predicted hepatic clearance ([2]; dispersion model) [mL/min/kg] | Km ([2]; female, NIH-III, liver S9 (9,000 g post-mitochondrial supernatant), pH 7.4, anoxic mouse liver S9, read-out: Apparent Km for formation of M14) [µM] | Predicted hepatic clearance ([2]; parallel tube model) [mL/min/kg] | Predicted hepatic clearance ([2]; well-stirred model, from anoxic S9 CLint, liver assumed entirely anoxic) [mL/min/kg] | Urinary excretion, % of administered dose (Urinary excretion; 18.6 mg/kg i.p.) [%] | Urinary excretion, % of administered dose (Urinary excretion; 186 mg/kg i.p.) [%] | Urinary excretion, % of injected dose (Urinary excretion; by 24 h, dose not stated) [%]
1 | [O-][n+]1nc(CCCN2CCOCC2)nc2cc3c(cc21)CCC3 [M14] | 70 |  |  |  |  |  |  |  |  |  | 
2 | [O-][n+]1nc(CCCN2CCOCC2)[n+]([O-])c2cc3c(cc21)CCC3 [SN30000, 3-(3-Morpholinopropyl)-7,8-dihydro-6H-indeno[5,6-e][1,2,4]triazine 1,4-dioxide] |  | 9.2 ± 0.2 | 10.6 ± 0.2 | 71 ± 2 | 78.2 | 974 ± 71 | 83.5 | 65.2 | 3.38 ± 0.03 | 5.64 ± 0.02 | ~5
